Results reported in ChEMBL document CHEMBL3352475, “Novel dammarane saponins from Gynostemma pentaphyllum and their cytotoxic activities against HepG2 cells” (Bioorg Med Chem Lett, 2014).
Values after ≈ are worked out from the molar mass of the structure shown.

Tested on: HepG2
Experiment: Cytotoxicity against human HepG2 cells after 24 hrs by CCK-8 assay
Type: functional, cell-based
Conditions: HepG2, 24 h

Compound	IC50 [µg/mL]
CC(=O)OC[C@H]1O[C@@H](O[C@H]2[C@H](O[C@H]3[C@H](O)C[C@]4(C)[C@H]5C[C@@H](O)[C@@H]6[C@@H](/C(C)=C\CC=C(C)C)CC[C@@]6(C)[C@]5(C)CC[C@H]4C3(C)C)O[C@H](CO)[C@@H](O)[C@@H]2O)[C@H](O)[C@@H](O)[C@@H]1O	40 (≈ 48.5 µM)
C=C(CCC=C(C)C)[C@H]1CC[C@]2(C)[C@@H]1[C@H](O)C[C@@H]1[C@@]3(C)C[C@@H](O)[C@H](O[C@@H]4O[C@H](CO)[C@@H](O)[C@H](O)[C@H]4O[C@@H]4O[C@H](COC(C)=O)[C@@H](O)[C@H](O)[C@H]4O)C(C)(C)[C@@H]3CC[C@]12C	38 (≈ 46.1 µM)
CC(C)=CCC[C@](C)(O)[C@H]1CC[C@]2(C)[C@@H]1[C@H](O)C[C@@H]1[C@@]3(C)CC[C@H](O[C@@H]4O[C@H](CO)[C@@H](O)[C@H](O)[C@H]4O[C@@H]4O[C@H](CO)[C@@H](O)[C@H](O)[C@H]4O)C(C)(C)[C@@H]3CC[C@]12C	54 (≈ 68.8 µM)
